In patent US9723843B2, “Family of silver (I) periodate compounds having broad microbial properties” (Innovotech, Inc., priority 2011, dated 2017):
Like-named read-outs stand apart in the source and are kept apart here.

How the values were obtained:
[1] = Method: The purpose of this study was to develop a basic understanding of the solubility (and stability) of Ag5IO6 in pure water and 0.9% (physiological saline), following OECD Method (105)—flask.
• 1. About 0.1 g Ag5IO6 was weighed into 6 100 mL volumetric flasks. • 2. The flasks were filled to volume with ddH2O or 0.9% saline. • 3. The vessels were tightly stoppered and then agitated using a shaker in an incubator at 30° C. for approximately 24 hours. • 4. After 24 hours, two of the vessels (one per solvent) were equilibrated for 24 h at the test temperature (20° C., using a water bath) with occasional shaking. • 5. Pictures were obtained of the solutions and solid present. • 6. The contents of the vessels were then centrifuged at the test temperature (20° C.). • 7. The concentration of the test substance in the clear aqueous phase was determined by atomic absorption spectroscopy. • 8. The pH of the solution was measured using a pH meter. • 9. Triplicate samples of the solution were analyzed by UV-Vis spectroscopy. • 10. A sample of the solid material was collected by vacuum filtration, allowed to dry on the filter for 15 minutes, then transferred to a watch glass and placed in the fume hood to dry overnight. The sample was then packaged in a glass vial covered in aluminum foil and submitted for XRD analysis. • 11. The procedures of steps 4-10 were repeated for the second and third flask, after an initial equilibration at 30° C. for two and three days, respectively. Results

[2] = room temperature
Method: The purpose of this study was to determine whether or not Ag5IO6 interacts with methanol, tetrahydrofuran, acetone, and acetonitrile.
• i. […] of Ag5IO6 was placed in a vial, 2 mL of the solvent was added, and the vial was placed in a TAM III for an isothermal run at room temperature for >24 h with solvent only as the reference. The heat flow was measured. • ii. After the run was complete, the solvents were allowed to flash off and the solids collected were submitted to XRD. • iii. Samples exposed following essentially the same method for only 18 h were also submitted for XRD.

[3] = remark: listed apart in the source
Method: The purpose of this study was to determine the stability of Ag5IO6 at various temperatures independent of hydrolytic or photolytic effects, in order to obtain an understanding of its storage stability, and also to perform differential scanning calorimetry and thermal gravimetry.
• i. Ag5IO6 was made fresh, a sample was submitted for XRD analysis (Day 0), and then additional samples were placed at room temperature, 40° C., 54° C., and 90° C. for 14 and 28 days in amber glass vials placed in CO2 impermeable foil pouches with desiccant packs. After the allotted time period, the samples were submitted for XRD. • Samples were submitted for DSC/TGA to measure thermal stability.

[4] = greater than 1.3 million lux hours exposure
Excerpt: The purpose of this study was to assess the photostability of Ag5IO6 in accordance with the FDA's 1997 recommendations regarding the photostability testing of new products.
The samples were then submitted for XRD.

SMILES: [Ag+].[Ag+].[Ag+].[Ag+].[Ag+].[O-][I+]([O-])([O-])([O-])([O-])[O-] [Ag5IO6, pentasilver hexaoxoiodate]
- solubility in saline ([1]; 0.9% saline, 20° C., calculated assuming that all Ag in solution is due to Ag5IO6): 0.61 ± 0.05 mg/L
- solubility in ddH2O ([1]; ddH2O, 20° C., calculated assuming that all Ag in solution is due to Ag5IO6): 24.41 ± 0.87 mg/L
- solid material converted to Ag metal (XRD) ([1]; in ddH2O): 0.1%
- solid material remained as Ag5IO6 (XRD) ([1]; in ddH2O): approximately 99.9%
- solid material converted to AgCl (XRD) ([1]; in saline, solid collected at the end of the experiment): approximately 25%
- pH in saline ([1]; solution over Ag5IO6 in 0.9% saline): 10
- pH in ddH2O ([1]; solution over Ag5IO6 in ddH2O): 8
- onset of significant reaction ([2]; THF): ~56 h
- onset of significant reaction ([2]; acetonitrile (slower onset)): ~56 h
- time blended with solvents without substantial reaction ([2]; all solvents (methanol, tetrahydrofuran, acetone, acetonitrile)): < 18 h
- onset of significant reaction ([2]; methanol): ~33 h
- composition after storage (XRD) ([3]; 90° C., 14 and 28 days): 100 % Ag5IO6
- grain size ([3]; 90° C., Day 14): 62 Å
- grain size ([3]; 90° C., Day 28): 94 Å
- grain size ([3]; Day 0): 14 Å
- temperature up to which stable ([3]; powder): > 400 °C
- time stable at 90° C. ([3]; powder, 90° C.): > 28 days
- temperature up to which stable ([3]; powder, listed as Ag5IO6 powder): up to 440 °C
- shelf life at room temperature ([3]; suggested by stability at 54° C. for 28 days): > 2 years
- composition after light exposure (XRD) [4]: 100 % Ag5IO6
